Laboratory results reported in US20240391936A1, “TETRAHYDROTHIENO PYRIDINE DERIVATIVES AS DDRS INHIBITORS” (CHIESI FARMACEUTICI S.P.A., priority 2021, published 2024).
pIC50, pKi: −log10 of the molar value.

Columns and labels:
DDR2 = target: T1, DDR2 (Homo sapiens, UniProt Q16832); assay: DDR2 binding assay (LanthaScreen Europium Kinase Binding assay); design: purchased Life Technologies; details: binding assay, 5 nM DDR2, 10 nM Kinase Tracer 178; Ki from IC50 by Cheng-Prusoff; read-out: Ki DDR2
T1 sequence (Q16832 22-855): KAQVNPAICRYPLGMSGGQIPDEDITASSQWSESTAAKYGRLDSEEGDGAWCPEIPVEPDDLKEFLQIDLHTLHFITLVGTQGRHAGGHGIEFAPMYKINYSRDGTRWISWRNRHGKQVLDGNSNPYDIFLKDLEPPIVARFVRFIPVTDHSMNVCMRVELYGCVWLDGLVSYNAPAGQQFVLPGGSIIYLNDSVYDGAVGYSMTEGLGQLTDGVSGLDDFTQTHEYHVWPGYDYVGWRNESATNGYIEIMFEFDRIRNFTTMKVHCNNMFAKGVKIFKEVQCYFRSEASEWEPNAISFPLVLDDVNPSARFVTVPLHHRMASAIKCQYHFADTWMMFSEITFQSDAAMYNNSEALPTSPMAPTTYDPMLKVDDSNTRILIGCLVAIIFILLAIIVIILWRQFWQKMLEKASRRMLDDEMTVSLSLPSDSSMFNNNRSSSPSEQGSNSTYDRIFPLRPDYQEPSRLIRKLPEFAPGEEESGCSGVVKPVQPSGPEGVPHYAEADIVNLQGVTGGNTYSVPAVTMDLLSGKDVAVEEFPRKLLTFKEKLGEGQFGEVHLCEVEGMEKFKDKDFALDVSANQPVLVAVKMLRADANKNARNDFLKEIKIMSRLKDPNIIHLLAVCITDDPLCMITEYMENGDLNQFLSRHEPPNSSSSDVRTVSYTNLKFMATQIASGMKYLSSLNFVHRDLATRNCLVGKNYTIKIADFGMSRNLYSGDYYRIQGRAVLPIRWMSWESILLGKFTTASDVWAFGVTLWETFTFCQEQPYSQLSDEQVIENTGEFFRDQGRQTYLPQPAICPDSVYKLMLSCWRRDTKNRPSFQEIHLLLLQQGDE
Procedure, shortened: (§1)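 Compounds incubated 1 h at room temperature with 5 nM kinase, Kinase Tracer 178 (20 nM for DDR1, 10 nM for DDR2) and 2 nM Eu-anti-GST antibody in pH 7.5 HEPES/MgCl2/EGTA/BRIJ35 buffer. TR-FRET 665/615 nm ratio read after 340 nm excitation; IC50 from 4-parameter fit, converted to Ki by Cheng-Prusoff.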

DDR1 [1] = target: T2, DDR1 (Homo sapiens, UniProt Q08345); assay: DDR1 binding assay (LanthaScreen Europium Kinase Binding assay); design: purchased Carna Biosciences; details: binding assay, 5 nM DDR1, 20 nM Kinase Tracer 178; Ki from IC50 by Cheng-Prusoff; read-out: Ki DDR1
Procedure, shortened: as §1

DDR1 [2] = target: T2, DDR1; assay: DDR1 cell based assay (PathHunter U2OS DDR1 assay); design: host or cells: U2OS-DDR1 (PathHunter); details: U2OS-DDR1 cells, bovine Type II Collagen 20 μg/ml
Procedure, shortened: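 U2OS-DDR1 PathHunter cells preincubated 30 min with compound, then stimulated overnight at 37 °C with 20 μg/ml bovine type II collagen. Luminescent complementation signal read after 1 h detection at room temperature; normalized to vehicle (0%) and collagen-only (100%) controls, IC50 from variable-slope sigmoidal fit.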

T2 sequence (Q08345 19-913): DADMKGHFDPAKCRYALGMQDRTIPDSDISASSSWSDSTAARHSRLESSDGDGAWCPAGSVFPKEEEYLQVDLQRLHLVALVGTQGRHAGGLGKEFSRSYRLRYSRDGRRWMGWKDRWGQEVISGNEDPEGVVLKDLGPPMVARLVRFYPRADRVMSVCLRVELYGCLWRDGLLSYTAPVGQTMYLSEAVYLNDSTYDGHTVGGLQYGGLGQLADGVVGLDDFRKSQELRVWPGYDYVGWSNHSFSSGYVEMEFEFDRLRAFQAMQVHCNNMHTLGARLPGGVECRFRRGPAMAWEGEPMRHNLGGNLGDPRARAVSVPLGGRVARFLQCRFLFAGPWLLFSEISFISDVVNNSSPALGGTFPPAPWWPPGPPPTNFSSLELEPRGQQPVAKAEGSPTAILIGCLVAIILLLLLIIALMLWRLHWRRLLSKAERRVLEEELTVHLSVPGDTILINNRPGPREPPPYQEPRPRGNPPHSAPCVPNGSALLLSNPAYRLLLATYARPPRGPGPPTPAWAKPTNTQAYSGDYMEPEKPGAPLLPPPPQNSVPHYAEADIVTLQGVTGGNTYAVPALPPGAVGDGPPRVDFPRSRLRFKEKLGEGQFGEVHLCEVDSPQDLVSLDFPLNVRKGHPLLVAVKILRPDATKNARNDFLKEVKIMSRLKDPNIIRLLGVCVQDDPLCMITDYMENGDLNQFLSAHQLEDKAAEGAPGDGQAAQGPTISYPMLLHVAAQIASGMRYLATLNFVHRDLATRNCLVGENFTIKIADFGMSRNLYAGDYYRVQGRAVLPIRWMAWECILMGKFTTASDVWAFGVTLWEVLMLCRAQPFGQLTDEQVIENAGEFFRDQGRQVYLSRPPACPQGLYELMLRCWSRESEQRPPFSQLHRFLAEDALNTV

Structure (SMILES) | pKi (DDR2) | pKi (DDR1 [1]) | pIC50 (DDR1 [2])
CN(Cc1cc(NC(=O)c2csc3c2CCN(C(=O)c2cnc4ccccn24)C3)cc(C(F)(F)F)c1)C1COC1 [Example 53, 6-(imidazo[1,2-a]pyridine-3-carbonyl)-N-(3-((methyl(oxetan-3-yl)amino)methyl)-5-(trifluoromethyl)phenyl)-4,5,6,7-tetrahydrothieno[2,3-c]pyridine-3-carboxamide] | > 7.60 | > 7.60 | 7.10 to 7.30
O=C(Nc1cc(CN2CCN(C3COC3)CC2)cc(C(F)(F)F)c1)c1csc2c1CCN(C(=O)c1cnc3ccccn13)C2 [Example 54, 6-(imidazo[1,2-a]pyridine-3-carbonyl)-N-(3-((4-(oxetan-3-yl)piperazin-1-yl)methyl)-5-(trifluoromethyl)phenyl)-4,5,6,7-tetrahydrothieno[2,3-c]pyridine-3-carboxamide] | > 7.60 | > 7.60 | 7.10 to 7.30
O=C(Nc1cc(CN2CCCCC2)cc(C(F)(F)F)c1)c1csc2c1CCN(C(=O)c1cnc3ccccn13)C2 [Example 60, 6-(imidazo[1,2-a]pyridine-3-carbonyl)-N-(3-(piperidin-1-ylmethyl)-5-(trifluoromethyl)phenyl)-4,5,6,7-tetrahydrothieno[2,3-c]pyridine-3-carboxamide] | > 7.60 | > 7.60 | 7.10 to 7.30
COCCN(C)Cc1cc(NC(=O)c2csc3c2CCN(C(=O)c2cnc4ccccn24)C3)cc(C(F)(F)F)c1 [Example 61, 6-(imidazo[1,2-a]pyridine-3-carbonyl)-N-(3-(((2-methoxyethyl)(methyl)amino)methyl)-5-(trifluoromethyl)phenyl)-4,5,6,7-tetrahydrothieno[2,3-c]pyridine-3-carboxamide] | > 7.60 | > 7.60 | 7.30 to 7.60
CN1CCN(CCOc2cc(NC(=O)c3csc4c3CCN(C(=O)c3cnc5ccccn35)C4)cc(C(F)(F)F)c2)CC1 [Example 62, 6-(imidazo[1,2-a]pyridine-3-carbonyl)-N-(3-(2-(4-methylpiperazin-1-yl)ethoxy)-5-(trifluoromethyl)phenyl)-4,5,6,7-tetrahydrothieno[2,3-c]pyridine-3-carboxamide] | > 7.60 | > 7.60 | 7.30 to 7.60
CN1CCC(Oc2cc(NC(=O)c3csc4c3CCN(C(=O)c3cnc5ccccn35)C4)cc(C(F)(F)F)c2)C1 (stereo not drawn) [Example 63, 6-(imidazo[1,2-a]pyridine-3-carbonyl)-N-[3-(1-methylpyrrolidin-3-yl)oxy-5-(trifluoromethyl)phenyl]-5,7-dihydro-4H-thieno[2,3-c]pyridine-3-carboxamide] | > 7.60 | > 7.60 | 7.10 to 7.30
Cc1cn(-c2cc(NC(=O)c3csc4c3CCN(Cc3cnc5ccccn35)C4)cc(C(F)(F)F)c2)cn1 [Example 65, 6-(imidazo[1,2-a]pyridin-3-ylmethyl)-N-(3-(4-methyl-11H-imidazol-1-yl)-5-(trifluoromethyl)phenyl)-4,5,6,7-tetrahydrothieno[2,3-c]pyridine-3-carboxamide] | > 7.60 | > 7.60 | 7.10 to 7.30
O=C(Nc1cccc(C(F)(F)F)c1)c1csc2c1CCN(C(=O)c1cnc3[nH]ccc3c1)C2 [Example 68, 6-(1H-pyrrolo[2,3-b]pyridine-5-carbonyl)-N-(3-(trifluoromethyl)phenyl)-4,5,6,7-tetrahydrothieno[2,3-c]pyridine-3-carboxamide] | > 7.60 | > 7.60 | 7.30 to 7.60

Continued, values first:

pKi (DDR2) | pKi (DDR1 [1]) | pIC50 (DDR1 [2]) | Structure (SMILES)
> 7.60 | > 7.60 | > 7.60 | O=C(Nc1cc(CN2CCC2)cc(C(F)(F)F)c1)c1csc2c1CCN(C(=O)c1cnc3ccccn13)C2 [Example 52, N-(3-(azetidin-1-ylmethyl)-5-(trifluoromethyl)phenyl)-6-(imidazo[1,2-a]pyridine-3-carbonyl)-4,5,6,7-tetrahydrothieno[2,3-c]pyridine-3-carboxamide]
> 7.60 | > 7.60 | 7.10 to 7.30 | CN(C)CC1CCN(Cc2cc(NC(=O)c3csc4c3CCN(C(=O)c3cnc5ccccn35)C4)cc(C(F)(F)F)c2)C1 (stereo not drawn) [Example 55, N-(3-((3-((dimethylamino)methyl)pyrrolidin-1-yl)methyl)-5-(trifluoromethyl)phenyl)-6-(imidazo[1,2-a]pyridine-3-carbonyl)-4,5,6,7-tetrahydrothieno[2,3-c]pyridine-3-carboxamide]
> 7.60 | > 7.60 | > 7.60 | CN(C)C1CCN(Cc2cc(NC(=O)c3csc4c3CCN(C(=O)c3cnc5ccccn35)C4)cc(C(F)(F)F)c2)C1 (stereo not drawn) [Example 56, N-(3-((3-(dimethylamino)pyrrolidin-1-yl)methyl)-5-(trifluoromethyl)phenyl)-6-(imidazo[1,2-a]pyridine-3-carbonyl)-4,5,6,7-tetrahydrothieno[2,3-c]pyridine-3-carboxamide]
> 7.60 | > 7.60 | > 7.60 | CN(CCO)Cc1cc(NC(=O)c2csc3c2CCN(C(=O)c2cnc4ccccn24)C3)cc(C(F)(F)F)c1 [Example 57, N-(3-(((2-hydroxyethyl)(methyl)amino)methyl)-5-(trifluoromethyl)phenyl)-6-(imidazo[1,2-a]pyridine-3-carbonyl)-4,5,6,7-tetrahydrothieno[2,3-c]pyridine-3-carboxamide]
> 7.60 | > 7.60 | 7.30 to 7.60 | CC(=O)N1CCN(Cc2cc(NC(=O)c3csc4c3CCN(C(=O)c3cnc5ccccn35)C4)cc(C(F)(F)F)c2)CC1 [Example 58, N-(3-((4-acetylpiperazin-1-yl)methyl)-5-(trifluoromethyl)phenyl)-6-(imidazo[1,2-a]pyridine-3-carbonyl)-4,5,6,7-tetrahydrothieno[2,3-c]pyridine-3-carboxamide]
7.30 to 7.60 | 7.30 to 7.60 | 7.30 to 7.60 | CN1CCN(Cc2cc(NC(=O)c3csc4c3CCN(C(=O)c3cnc5ccccn35)C4)cc(C(F)(F)F)c2)CC1=O [Example 59, 6-(imidazo[1,2-a]pyridine-3-carbonyl)-N-(3-((4-methyl-3-oxopiperazin-1-yl)methyl)-5-(trifluoromethyl)phenyl)-4,5,6,7-tetrahydrothieno[2,3-c]pyridine-3-carboxamide]
> 7.60 | > 7.60 | 7.30 to 7.60 | CC(C)(C)c1cc(NC(=O)c2csc3c2CCN(C(=O)c2cnc4ccccn24)C3)n(CCO)n1 [Example 64, N-(3-(tert-butyl)-1-(2-hydroxyethyl)-1H-pyrazol-5-yl)-6-(imidazo[1,2-a]pyridine-3-carbonyl)-4,5,6,7-tetrahydrothieno[2,3-c]pyridine-3-carboxamide]
7.30 to 7.60 | > 7.60 | 7.10 to 7.30 | Cc1ccc(-n2nc(C(C)(C)C)cc2NC(=O)c2csc3c2CCN(Cc2ccnc4[nH]ccc24)C3)cc1 [Example 76, 6-((1H-pyrrolo[2,3-b]pyridin-4-yl)methyl)-N-(3-(tert-butyl)-1-(p-tolyl)-1H-pyrazol-5-yl)-4,5,6,7-tetrahydrothieno[2,3-c]pyridine-3-carboxamide]
> 7.60 | > 7.60 | > 7.60 | Cn1nc(C(C)(C)C)cc1NC(=O)c1csc2c1CCN(Cc1cnc3[nH]ncc3c1)C2 [Example 77, 6-((1H-pyrazolo[3,4-b]pyridin-5-yl)methyl)-N-(3-(tert-butyl)-1-methyl-1H-pyrazol-5-yl)-4,5,6,7-tetrahydrothieno[2,3-c]pyridine-3-carboxamide]
> 7.60 | > 7.60 | 7.30 to 7.60 | Cc1ccn2c(C(=O)N3CCc4c(C(=O)Nc5cc(C(C)(C)C)nn5C)csc4C3)cnc2c1 [Example 79, N-(5-tert-butyl-2-methyl-pyrazol-3-yl)-6-(7-methylimidazo[1,2-a]pyridine-3-carbonyl)-5,7-dihydro-4H-thieno[2,3-c]pyridine-3-carboxamide]
